Laboratory results as given in patent EP1143992B1, “THERAPEUTIC COMPOSITIONS CONTAINING GLUTATHIONE ANALOGS” (TELIK, INC., priority 1999, dated 2000).
Like-named read-outs stand apart in the source and are kept apart here.

Key:
[1] = Particle size of lipid microspheres; assay type: physicochemical; details: lipid microspheres after 1.2µm filter, 300 µg/mL
Description: Then 2.21 gm of glycerol and enough distilled water to bring the volume to 100 mL(approximately 90 mL) were added, followed by a rough emulsification by means of a homogenizer. The product is then further emulsified by means of a manton gaulin type homogenizer. […]

[2] = Description: The lyophilization cycle involved rapid freezing of the sample (2.5 ml fill of 10 ml vial) to a sample temperature of -50°C, followed by lyophilization at a tray temperature of -35°C for 42 hours to remove primary water, and for 2 hours at 20°C to remove secondary water.
The MLVs may be passed (5-10x) through stacked polycarbonate filters (pore size of 80 nm) using an EXTRUDER (Lipex Biomembranes, Vancouver, Canada).

[3] = system: fluorouracil-induced neutropenia; details: rats; fluorouracil 125mg/kg intraperitoneally; liposomal formulation of Example 4, 35mg/kg, 8 daily intravenous injections; Figure 1
Description: Male CD rats (250-300g) were injected intraperitoneally with either the antineoplastic drug, fluorouracil (125mg/kg) or an equivalent volume of its vehicle (saline). […] Rats originally injected with saline rather than fluorouracil received saline intravenously (n = 7). Blood samples were taken for measurement of neutrophil levels prior to the fluorouracil and every 1 to 2 days thereafter for 14 days.

[4] = system: circulating neutrophil levels; details: normal rats; liposomal formulation of Example 4, 35mg/kg, i.v., 5 daily injections; Figure 2
Description: Blood samples were taken for measurement of neutrophil levels daily.

[5] = Drug/Lipid 0.25, EPC/EPG (1/1), Sucrose 300 mM

- particles of final emulsion [1]: approximately 220 nM
- Drug (mg/ml) ([2]; ethanol dilution, Drug/Lipid 0.25 wt/wt, EPC, comparative example): 16.2. mg/ml
- precipitated form of the drug ([2]; removed by extrusion through 80 nm filters): < 2%
- Viscosity ([5]; Lyophilization Time 32 hr): Negligible
- Viscosity ([5]; Lyophilization Time 40 hr): Negligible
- Viscosity ([5]; Lyophilization Time 44 hr): Negligible
- Viscosity ([5]; Lyophilization Time 54 hr): Viscous
- Viscosity ([5]; Lyophilization Time 59 hr): Very Viscous
SMILES: CCOC(=O)C(N)CCC(=O)NC(CSCc1ccccc1)C(=O)N[C@@H](C(=O)OCC)c1ccccc1.Cl (stereo partly shown) [Compound 9, γ-Glutamyl-S(benzyl)cysteinyl-R-phenyl glycine diethyl ester hydrochloride]
- recovery from chemotherapy-induced neutropenia [3]: accelerated recovery
- circulating neutrophil levels [4]: increased
